Experimental data published in article PMC10298474 (2023).

System: Cy5-labeled 16 bp WC-helix (RNA, duplex) AGAGGGAAUUCCCUCU
Assay: microscale thermophoresis
Details: 100 mM K+, 2 mM Mg2+; 10 mM HEPES pH 7.5, 0.5 mM EDTA, 0.1% Tween 20, 25 °C; 50 nM RNA; single-site fit

C[C@@H]1O[C@@H](OC[C@H]2O[C@@H](Oc3c(-c4ccc(O)c(O)c4)oc4cc(O)cc(O)c4c3=O)[C@H](O)[C@@H](O)[C@@H]2O)[C@H](O)[C@H](O)[C@H]1O
KD: < 0.1 nM
